Measurements: PMC5781198 (Influenza and Other Respiratory Viruses, 2013)
“Also recorded” adds a separate entry of the source.

What was measured:
[1] = target: B/Ontario/006876/2011 NA (H273Y) (Influenza B virus, UniProt P27907, H272Y); type: biochemical, Influenza B virus (Yamagata)
[2] = tested on: A/Bolivia/258/2011 NA (D199N); type: biochemical, Influenza A(H1N1)pdm09 virus
[3] = tested on: A/Dominican Republic/5507/2011 NA (S247N); type: biochemical, Influenza A(H1N1)pdm09 virus
[4] = tested on: A/Puerto Rico/05/2011 NA (D199N); type: biochemical, Influenza A(H1N1)pdm09 virus
[5] = tested on: B/Bangladesh/4013/2011 NA (A136S); type: biochemical, Influenza B virus (Victoria)
[6] = tested on: A/Santiago/15706/2011 NA (G460S); type: biochemical, Influenza A(H1N1)pdm09 virus
[7] = tested on: A/Santiago/14689/2011 NA (N325K); type: biochemical, Influenza A(H1N1)pdm09 virus
[8] = tested on: B/British Columbia/RV1383/2011 NA (T106N); type: biochemical, Influenza B virus (Yamagata)
[9] = tested on: A/Bolivia/603/2011 NA (D151G); type: biochemical, Influenza A(H3N2) virus
[10] = target: B/Kenya/9528/2011 NA (M403V) (Influenza B virus, UniProt P27907, M402V); type: biochemical, Influenza B virus (Victoria)
[11] = target: B/Ontario/1256/2011 NA (G140R, N144K) (Influenza B virus, UniProt P27907, G140R/N143K); type: biochemical, Influenza B virus (Victoria)
[12] = target: B/Dominican Republic/5506/2011 NA (H273Y) (Influenza B virus, UniProt P27907, H272Y); type: biochemical, Influenza B virus (Victoria)
[13] = tested on: A/Alberta/RV1242/2011 NA (H275H/Y, D199D/N); type: biochemical, Influenza A(H1N1)pdm09 virus
[14] = target: B/Guatemala/16/2011 NA (S244P) (Influenza B virus, UniProt P27907, S243P); type: biochemical, Influenza B virus (Victoria)
[15] = tested on: A/Vietnam/108/2011 NA (F174V); type: biochemical, Influenza A(H1N1)pdm09 virus
[16] = tested on: B/Ontario/006876/2011 NA (H273Y); details: cited from earlier work
[17] = target: B/Bangladesh/8008/2011 NA (I120V) (Influenza B virus, UniProt P27907, I119V); type: biochemical, Influenza B virus (Victoria)

**Q.** Which “fold difference in IC50” value [1] does the source give for `CCC(CC)[C@H](NC(C)=O)[C@@H]1[C@H](O)[C@@H](C(=O)O)C[C@H]1N=C(N)N` [Peramivir, peramivir] here?
**A.** The value was 33·49 (62) fold.

**Q.** And the “fold greater IC50 than the mean IC50 for the drug for all B viruses” value (from here on “fold greater IC50 than the mean IC50”) [1]?
**A.** The value was 44 fold.

**Q.** And the “fold difference in IC50” value [2]?
**A.** Its value is 0·09 (2) fold.

**Q.** And the “fold difference in IC50” value [3]?
**A.** The value was 0·15 (3) fold.

**Q.** What about the “fold difference in IC50” value [4] of the same compound?
**A.** Its value is 0·21 (4) fold.

**Q.** And the “fold difference in IC50” value [5]?
**A.** The value was 4·77 (6) fold.

**Q.** What about the “fold difference in IC50” value [6] of the same compound?
**A.** The value was 0·26 (4) fold.

**Q.** And the susceptibility in words [7]?
**A.** Its susceptibility in words is “mildly reduced sensitivity”.

**Q.** And the “fold difference in IC50” value [8]?
**A.** Its value is 0·85 (2) fold.

**Q.** What about the “fold difference in IC50” value [9] of the same compound?
**A.** Its value is 0·08 (1) fold.

**Q.** What about the “fold difference in IC50” value [10] of the same compound?
**A.** Its value is 3·59 (4) fold.

**Q.** What about the “fold difference in IC50” value [11] of the same compound?
**A.** Its value is 210·68 (257) fold.

**Q.** What about the “fold greater IC50 than the mean IC50” value [11] of the same compound?
**A.** The value was 277 fold.

**Q.** And the susceptibility in words [11]?
**A.** Its susceptibility in words is “significantly reduced susceptibility”.

**Q.** And the “fold difference in IC50” value [12]?
**A.** Its value is 12·43 (15) fold.

**Q.** And the “fold greater IC50 than the mean IC50” value [12]?
**A.** The value was 16 fold.

**Q.** What about the “IC50 relative to isolate A/Puerto Rico/09/2011 (dominant H275Y)” value [13] of the same compound?
**A.** The value was “approximately threefold less; also recorded: three times less resistant”.

**Q.** And the “fold difference in IC50” value [14]?
**A.** The value was 0·60 (1) fold.

**Q.** What about the susceptibility in words [14] of the same compound?
**A.** Its susceptibility in words is “sensitive”.

**Q.** What about the “fold difference in IC50” value [15] of the same compound?
**A.** The value was 0·06 (1) fold.

**Q.** What about the susceptibility in words [16] of the same compound?
**A.** The susceptibility in words was “reduced susceptibility”.

**Q.** And the “fold difference in IC50” value [17]?
**A.** Its value is 4·36 (5) fold.

**Q.** Which results are given for `CC(=O)N[C@H]1[C@H]([C@H](O)[C@H](O)CO)OC(C(=O)O)=C[C@@H]1N=C(N)N` [Zanamivir, zanamivir]?
**A.** susceptibility in words [7]: mildly reduced sensitivity; susceptibility in words [11]: significantly reduced susceptibility; susceptibility in words [14]: mild outlier
